Test results reported in US20260042762A1 (Kymera Therapeutics, Inc., priority 2018, published 2026).
Counter-ions that a name gives are not always drawn.

Assays:
MerTK [1] = biological target: T1, MerTK (Mus musculus, UniProt Q60805); assay: MerTK degradation in RAW264 cells (Western blot); type: cell-based; settings: RAW264.7, 0.001-1 μM, 4 hour-incubation at 37° C., read-out: RAW264 Max % MerTK Degradation
T1 construct: endogenous in cells; host or cells: RAW264 cells
T1 sequence (Q60805 19-994): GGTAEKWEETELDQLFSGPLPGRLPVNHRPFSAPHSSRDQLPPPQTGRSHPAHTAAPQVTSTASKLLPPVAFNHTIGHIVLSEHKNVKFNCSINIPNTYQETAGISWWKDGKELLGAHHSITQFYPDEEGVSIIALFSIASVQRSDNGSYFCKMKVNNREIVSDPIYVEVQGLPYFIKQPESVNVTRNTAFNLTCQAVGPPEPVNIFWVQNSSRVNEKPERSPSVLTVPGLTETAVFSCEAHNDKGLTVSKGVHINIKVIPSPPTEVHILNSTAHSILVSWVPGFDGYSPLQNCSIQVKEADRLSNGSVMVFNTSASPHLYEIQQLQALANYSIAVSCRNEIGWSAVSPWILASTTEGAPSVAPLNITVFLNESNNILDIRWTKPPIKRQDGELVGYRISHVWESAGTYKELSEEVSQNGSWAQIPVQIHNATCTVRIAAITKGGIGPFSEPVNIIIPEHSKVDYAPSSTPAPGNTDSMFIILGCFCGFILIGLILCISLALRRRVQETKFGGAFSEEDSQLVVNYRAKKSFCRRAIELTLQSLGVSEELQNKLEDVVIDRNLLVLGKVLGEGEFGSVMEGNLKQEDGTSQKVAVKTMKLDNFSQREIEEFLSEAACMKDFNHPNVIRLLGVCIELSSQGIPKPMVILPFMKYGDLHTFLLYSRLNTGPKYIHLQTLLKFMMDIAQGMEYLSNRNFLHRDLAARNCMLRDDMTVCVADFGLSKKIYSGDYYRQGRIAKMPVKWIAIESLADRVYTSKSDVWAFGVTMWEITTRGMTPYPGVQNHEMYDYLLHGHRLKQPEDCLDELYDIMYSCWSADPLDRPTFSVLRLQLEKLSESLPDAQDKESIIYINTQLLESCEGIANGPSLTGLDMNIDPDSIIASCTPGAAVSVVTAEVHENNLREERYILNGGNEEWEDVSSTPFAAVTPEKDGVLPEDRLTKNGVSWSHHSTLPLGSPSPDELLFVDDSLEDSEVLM
Procedure: Compounds were reconstituted in DMSO to make 10 mM stock solutions. RAW264 cells were maintained in DMEM medium containing 10% FBS. Cells were seeded into 6-well plates with 2×10^6 cells per well. 2 μL of diluted compounds were added to cells to the final concentration of 0.001-1 μM. After a 4 hour-incubation at 37° C., cells were washed with DPBS (1×) once. Then RIPA lysis buffer with Halt Protease and Phosphatase Inhibitor Cocktail was added directly to the cells and cells were then incubated on ice for 10 min, then lysate was harvested into 1.5 mL Eppendorf tubes and centrifuged at 14,000 rpm for 10 min at 4° C. and the supernatants were collected for Western blots.
The protein concentration of cell lysates was quantified with Pierce™ BCA Protein Assay Kit. […] BCA working reagents were prepared by mixing BCA reagent A with reagent B in 50: 1 ratio. 200 μL of the BCA working reagents were added to 25 μL of BCA standard or cell lysates in microplate, and mixed thoroughly on a plate shaker for 30 seconds. After incubation at 37° C. for 30 min, the absorbance of samples at 562 nm were measured with EnVision Plate Reader.
Protein lysates were prepared in NuPAGE™ LDS sample buffer and NuPAGE™ sample reducing agent, and incubated at 95° C. for 5 min. […] The proteins were transferred to low fluorescence PVDF membranes using the Trans-Blot Turbo Transfer System. Membranes were then blocked in Odyssey blocking buffer at RT for 1 h followed by primary incubation at 4° C. overnight. The primary antibodies were MerTK goat polyclonal antibody and actin mouse monoclonal antibody. Membranes were washed three times with TBST (1×), and then incubated with IR Dye 800 CW Donkey anti-goat and IR Dye 700 CW Goat anti-mouse secondary antibodies in 1:10,000 dilution at RT for 1 h. The Western blot images were obtained using Odyssey Imaging System.

MerTK [2] = biological target: T2, MerTK (Homo sapiens, UniProt Q12866); assay: MerTk degradation in Jurkat cells (Western blot); type: cell-based; settings: Jurkat, 4 h, 0.001-1 μM, 4 hour-incubation at 37° C., read-out: Jurkat Max % MerTK Degradation
T2 construct: endogenous in cells; host or cells: Jurkat cells
T2 sequence (Q12866 21-999): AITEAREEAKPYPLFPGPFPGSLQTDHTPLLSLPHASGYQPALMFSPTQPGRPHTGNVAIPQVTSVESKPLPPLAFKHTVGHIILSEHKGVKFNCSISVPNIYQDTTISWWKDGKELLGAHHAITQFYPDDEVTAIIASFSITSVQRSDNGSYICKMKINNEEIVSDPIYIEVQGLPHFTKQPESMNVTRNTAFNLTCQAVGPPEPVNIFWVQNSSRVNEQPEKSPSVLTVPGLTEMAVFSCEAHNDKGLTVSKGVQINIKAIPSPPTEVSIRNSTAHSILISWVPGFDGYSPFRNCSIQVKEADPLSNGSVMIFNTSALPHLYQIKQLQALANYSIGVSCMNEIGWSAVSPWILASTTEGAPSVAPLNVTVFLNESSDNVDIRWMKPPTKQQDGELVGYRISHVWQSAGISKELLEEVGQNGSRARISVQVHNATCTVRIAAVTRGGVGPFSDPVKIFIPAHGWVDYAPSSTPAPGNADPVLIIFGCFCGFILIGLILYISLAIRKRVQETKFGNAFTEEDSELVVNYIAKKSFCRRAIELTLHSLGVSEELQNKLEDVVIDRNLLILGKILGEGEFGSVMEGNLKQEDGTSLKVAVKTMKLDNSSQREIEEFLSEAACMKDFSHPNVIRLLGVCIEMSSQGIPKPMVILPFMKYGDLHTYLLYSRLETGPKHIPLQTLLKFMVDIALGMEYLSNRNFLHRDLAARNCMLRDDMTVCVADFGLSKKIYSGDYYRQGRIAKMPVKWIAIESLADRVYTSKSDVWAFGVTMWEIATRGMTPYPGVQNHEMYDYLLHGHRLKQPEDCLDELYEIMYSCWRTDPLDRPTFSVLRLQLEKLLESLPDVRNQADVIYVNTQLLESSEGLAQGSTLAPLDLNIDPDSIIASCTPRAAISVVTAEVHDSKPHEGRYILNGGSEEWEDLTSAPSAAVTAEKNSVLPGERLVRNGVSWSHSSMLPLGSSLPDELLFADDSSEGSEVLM
Summary of the method: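 Jurkat cells treated 4 h at 37 °C with compound at 0.001-1 μM final. RIPA lysates quantified by BCA, then MerTK probed by Western blot against actin loading control with IR-dye secondaries and Odyssey imaging.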

SMILES | Dmax (MerTK [1]) | Dmax (MerTK [2])
Cc1ccc(CNc2ncc(-c3ccc(CN4CCN(CCOCCOCCOCCOCCNc5cccc6c5C(=O)N(C5CCC(=O)NC5=O)C6=O)CC4)cn3)c(N[C@H]3CC[C@H](O)CC3)n2)cc1 (stereo partly drawn) [I-21, 2-(2,6-Dioxopiperidin-3-yl)-4-[15-(4-[[6-(2-[[(4-methylphenyl)methyl]amino]-4-[[trans-4-hydroxycyclohexyl]amino]pyrimidin-5-yl)pyridin-3-yl]methyl]piperazin-1-yl)-4,7,10,13-tetraoxa-1-azapentadecan-1-yl]-2,3-dihydro-1H-isoindole-1,3-dione] | 20 to 50% | 20 to 50%
CCCCNc1ncc2c(-c3ccc(S(=O)(=O)N4CCN(C(=O)NCCCOCCCOCCCNc5cccc6c5C(=O)N(C5CCC(=O)NC5=O)C6=O)CC4)cc3)nn([C@H]3CC[C@H](O)CC3)c2n1 (stereo partly drawn) [I-19, 4-((4-(6-(Butylamino)-1-(trans-4-hydroxycyclohexyl)-1H-pyrazolo[3,4-d]pyrimidin-3-yl)phenyl)sulfonyl)-N-(3-(3-(3-((2-(2,6-dioxopiperidin-3-yl)-1,3-dioxoisoindolin-4-yl)amino)propoxy)propoxy)propyl)piperazine-1-carboxamide] | > 50% | > 50%
CCCCNc1ncc2c(-c3ccc(CN4CCN(CCOCCOCCOCCOCCCc5ccc6c(c5)n(C)c(=O)n6C5CCC(=O)NC5=O)CC4)cc3)nn([C@H]3CC[C@H](O)CC3)c2n1 (stereo partly drawn) [I-38, trans-3-(5-[1-[4-([4-[6-(butylamino)-1-[4-hydroxycyclohexyl]-1H-pyrazolo[3,4-d]pyrimidin-3-yl]phenyl]methyl)piperazin-1-yl]-3,6,9,12-tetraoxapentadecan-15-yl]-3-methyl-2-oxo-2,3-dihydro-1H-1,3-benzodiazol-1-yl)piperidine-2,6-dione] | > 50% | > 50%
CCCCNc1ncc2c(-c3ccc(S(=O)(=O)N4CCN(C(=O)NCCCOCCCOCCCc5cccc6c5n(C)c(=O)n6C5CCC(=O)NC5=O)CC4)cc3)nn([C@H]3CC[C@H](O)CC3)c2n1 (stereo partly drawn) [I-29, 4-((4-(6-(Butylamino)-1-(trans-4-hydroxycyclohexyl)-1H-pyrazolo[3,4-d]pyrimidin-3-yl)phenyl)sulfonyl)-N-(3-(3-(3-(1-(2,6-dioxopiperidin-3-yl)-3-methyl-2-oxo-2,3-dihydro-1H-benzo[d]imidazol-4-yl)propoxy)propoxy)propyl)piperazine-1-carboxamide] | > 50% | > 50%
O=C1CCC(N2C(=O)c3cccc(NCCOCCOCCOCCOCCN4CCN(Cc5ccc(-c6cn([C@H]7CC[C@H](O)CC7)c7nc(NCCC8CC8)ncc67)cc5)CC4)c3C2=O)C(=O)N1 (stereo partly drawn) [I-14, 4-(15-[4-[(4-[2-[(2-Cyclopropylethyl)amino]-7-[trans-4-hydroxycyclohexyl]-7H-pyrrolo[2,3-d]pyrimidin-5-yl]phenyl)methyl]piperazin-1-yl]-4,7,10,13-tetraoxa-1-azapentadecan-1-yl)-2-(2,6-dioxopiperidin-3-yl)-2,3-dihydro-1H-isoindole-1,3-dione formate] | > 50% | > 50%
CCCCNc1ncc2c(-c3ccc(CN4CCN(CCOCCOCCOCCCc5ccc6c(c5)n(C)c(=O)n6C5CCC(=O)NC5=O)CC4)cc3)cn([C@H]3CC[C@H](O)CC3)c2n1 (stereo partly drawn) [I-40, 3-(5-[3-[2-(2-[2-[4-([4-[2-(Butylamino)-7-[trans-4-hydroxycyclohexyl]-7H-pyrrolo[2,3-d]pyrimidin-5-yl]phenyl]methyl)piperazin-1-yl]ethoxy]ethoxy)ethoxy]propyl]-3-methyl-2-oxo-2,3-dihydro-1H-1,3-benzodiazol-1-yl)piperidine-2,6-dione formic acid] | > 50% | > 50%
CCCCNc1ncc(-c2ccc(CN3CCN(CCOCCOCCOCCOCCNc4cccc5c4C(=O)N(C4CCC(=O)NC4=O)C5=O)CC3)cn2)c(N[C@H]2CC[C@H](O)CC2)n1 (stereo partly drawn) [I-25, 4-[15-[4-([6-[2-(Butylamino)-4-[[trans-4-hydroxycyclohexyl]amino]pyrimidin-5-yl]pyridin-3-yl]methyl)piperazin-1-yl]-4,7,10,13-tetraoxa-1-azapentadecan-1-yl]-2-(2,6-dioxopiperidin-3-yl)-2,3-dihydro-1H-isoindole-1,3-dione] | > 50% | > 50%
CCCCNc1ncc2c(-c3ccc(S(=O)(=O)N4CCN(C(=O)CCCCCCCCCCC(=O)N[C@H](C(=O)N5C[C@H](O)C[C@H]5C(=O)NCc5ccc(-c6scnc6C)cc5)C(C)(C)C)CC4)cc3)nn([C@H]3CC[C@H](O)CC3)c2n1 [I-27, (2S,4R)-1-((S)-2-(12-(4-((4-(6-(Butylamino)-1-(trans-4-hydroxycyclohexyl)-1H-pyrazolo[3,4-d]pyrimidin-3-yl)phenyl)sulfonyl)piperazin-1-yl)-12-oxododecanamido)-3,3-dimethylbutanoyl)-4-hydroxy-N-(4-(4-methylthiazol-5-yl)benzyl)pyrrolidine-2-carboxamide] | > 50% | > 50%
CCCCNc1ncc2c(-c3ccc(S(=O)(=O)N4CCN(CCOCCOCCOCCOCCCc5cccc6c5n(C)c(=O)n6C5CCC(=O)NC5=O)CC4)cc3)cn([C@H]3CC[C@H](O)CC3)c2n1 (stereo partly drawn) [I-13, 3-[4-[1-(4-[4-[2-(Butylamino)-7-[trans-4-hydroxycyclohexyl]-7H-pyrrolo [2,3-d]pyrimidin-5-yl]benzenesulfonyl]piperazin-1-yl)-3,6,9,12-tetraoxapentadecan-15-yl]-3-methyl-2-oxo-2,3-dihydro-1H-1,3-benzodiazol-1-yl]piperidine-2,6-dione formate] | > 50% | > 50%
